We go through seven compounds from ChEMBL document CHEMBL5291721, “A preclinical secondary pharmacology resource illuminates target-adverse drug reaction associations of marketed drugs” (Nat Commun, 2023).

Assay [1] addresses D(1B) dopamine receptor (Homo sapiens, UniProt P21918).
The target of assay [2] is T1, Thromboxane A2 receptor (Homo sapiens, UniProt P21731).
T1 sequence (P21731 whole entry): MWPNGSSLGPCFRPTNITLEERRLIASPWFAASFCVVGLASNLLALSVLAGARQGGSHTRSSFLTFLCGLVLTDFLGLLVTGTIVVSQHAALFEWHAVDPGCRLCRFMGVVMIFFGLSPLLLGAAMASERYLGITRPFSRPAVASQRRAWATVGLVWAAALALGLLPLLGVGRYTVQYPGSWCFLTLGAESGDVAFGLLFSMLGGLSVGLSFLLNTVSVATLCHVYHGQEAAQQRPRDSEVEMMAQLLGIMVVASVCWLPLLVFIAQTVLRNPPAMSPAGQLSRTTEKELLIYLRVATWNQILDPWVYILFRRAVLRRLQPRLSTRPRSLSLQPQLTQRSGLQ
In kind it is functional.

The target of assay [3] is D(1A) dopamine receptor (Homo sapiens, UniProt P21728).
Assay [4] concerns the target T2, Retinoic acid receptor beta (Homo sapiens, UniProt P10826).
T2 sequence (P10826 whole entry): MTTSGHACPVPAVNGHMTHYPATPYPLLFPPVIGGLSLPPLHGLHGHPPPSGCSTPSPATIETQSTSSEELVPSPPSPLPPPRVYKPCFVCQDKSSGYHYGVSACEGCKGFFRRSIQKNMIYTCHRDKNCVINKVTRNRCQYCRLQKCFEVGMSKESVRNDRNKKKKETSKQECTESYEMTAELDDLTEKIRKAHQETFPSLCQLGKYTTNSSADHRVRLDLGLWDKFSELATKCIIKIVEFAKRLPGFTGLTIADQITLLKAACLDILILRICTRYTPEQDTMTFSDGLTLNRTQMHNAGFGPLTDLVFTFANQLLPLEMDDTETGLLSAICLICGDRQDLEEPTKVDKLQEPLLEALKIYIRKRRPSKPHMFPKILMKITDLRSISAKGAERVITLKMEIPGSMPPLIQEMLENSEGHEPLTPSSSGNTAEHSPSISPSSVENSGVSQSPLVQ
In kind it is functional, cell-based.

The target in assay [5] is T2, Retinoic acid receptor beta. The assay is classed as functional, cell-based. This is another data set of the same source.
In assay [6] the target is T3, Retinoic acid receptor alpha (Homo sapiens, UniProt P10276).
T3 sequence (P10276 whole entry): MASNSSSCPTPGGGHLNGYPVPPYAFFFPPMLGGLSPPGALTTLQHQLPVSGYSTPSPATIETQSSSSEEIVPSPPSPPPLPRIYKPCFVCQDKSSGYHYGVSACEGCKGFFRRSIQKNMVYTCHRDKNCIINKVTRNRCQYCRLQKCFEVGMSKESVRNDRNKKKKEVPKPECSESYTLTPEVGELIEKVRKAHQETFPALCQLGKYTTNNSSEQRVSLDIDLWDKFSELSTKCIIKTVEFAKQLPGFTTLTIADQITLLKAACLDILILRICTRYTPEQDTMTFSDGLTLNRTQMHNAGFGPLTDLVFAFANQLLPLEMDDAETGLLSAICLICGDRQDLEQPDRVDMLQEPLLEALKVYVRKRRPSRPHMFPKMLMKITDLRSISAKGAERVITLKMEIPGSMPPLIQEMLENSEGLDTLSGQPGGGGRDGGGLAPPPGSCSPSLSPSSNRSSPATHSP
In kind it is functional, cell-based.

Assay [7] concerns the target T3, Retinoic acid receptor alpha. In kind it is functional, cell-based. The source holds these as a separate data set.
The target of assay [8] is T4, Retinoic acid receptor gamma (Homo sapiens, UniProt P13631).
T4 sequence (P13631 whole entry): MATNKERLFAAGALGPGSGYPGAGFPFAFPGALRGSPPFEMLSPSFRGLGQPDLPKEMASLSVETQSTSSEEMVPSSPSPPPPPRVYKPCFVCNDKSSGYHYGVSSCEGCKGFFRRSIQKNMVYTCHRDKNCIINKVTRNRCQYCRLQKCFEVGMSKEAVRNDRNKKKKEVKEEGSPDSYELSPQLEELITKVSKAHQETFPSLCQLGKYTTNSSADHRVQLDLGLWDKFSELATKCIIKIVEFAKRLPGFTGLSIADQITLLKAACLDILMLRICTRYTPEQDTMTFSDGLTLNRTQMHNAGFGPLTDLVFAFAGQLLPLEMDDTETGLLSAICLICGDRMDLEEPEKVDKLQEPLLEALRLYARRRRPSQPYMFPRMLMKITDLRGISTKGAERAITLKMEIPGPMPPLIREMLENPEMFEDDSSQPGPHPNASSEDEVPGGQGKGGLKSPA
The assay is classed as functional, cell-based.

Assay [9] deals with T5, Oxysterols receptor LXR-alpha (Homo sapiens, UniProt Q13133).
T5 sequence (Q13133 whole entry): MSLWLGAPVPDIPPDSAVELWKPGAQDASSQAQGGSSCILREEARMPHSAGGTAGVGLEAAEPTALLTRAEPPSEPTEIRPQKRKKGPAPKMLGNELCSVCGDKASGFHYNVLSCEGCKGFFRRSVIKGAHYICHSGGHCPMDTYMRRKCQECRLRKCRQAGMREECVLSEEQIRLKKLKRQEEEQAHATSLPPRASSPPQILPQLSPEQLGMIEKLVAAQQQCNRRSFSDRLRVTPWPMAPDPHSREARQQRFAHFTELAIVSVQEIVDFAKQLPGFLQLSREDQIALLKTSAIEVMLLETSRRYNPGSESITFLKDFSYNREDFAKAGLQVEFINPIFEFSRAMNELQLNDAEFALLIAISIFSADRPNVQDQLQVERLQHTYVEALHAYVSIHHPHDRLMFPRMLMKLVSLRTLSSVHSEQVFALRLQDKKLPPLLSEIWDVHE
The assay is classed as functional.

For assay [10], the target named is T5, Oxysterols receptor LXR-alpha. In kind it is functional. The source holds these as a separate data set.
For assay [11], the target named is 5-hydroxytryptamine receptor 2B (Homo sapiens, UniProt P41595).
Note: assay procedure not described here.

Chain of D(1B) dopamine receptor (P21918 whole entry): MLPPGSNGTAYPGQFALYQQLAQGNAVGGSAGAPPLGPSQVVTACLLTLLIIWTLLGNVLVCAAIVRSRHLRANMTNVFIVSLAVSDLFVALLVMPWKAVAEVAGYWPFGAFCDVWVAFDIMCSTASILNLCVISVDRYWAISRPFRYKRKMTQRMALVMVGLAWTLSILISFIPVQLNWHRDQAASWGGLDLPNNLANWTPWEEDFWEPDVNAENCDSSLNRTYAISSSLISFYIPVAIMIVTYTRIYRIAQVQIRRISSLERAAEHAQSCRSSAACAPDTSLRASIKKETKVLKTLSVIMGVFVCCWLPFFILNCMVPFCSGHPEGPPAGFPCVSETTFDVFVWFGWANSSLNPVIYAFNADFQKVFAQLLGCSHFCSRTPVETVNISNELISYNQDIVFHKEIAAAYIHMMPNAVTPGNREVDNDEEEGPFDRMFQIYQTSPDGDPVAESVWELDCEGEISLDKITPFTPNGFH
Chain of 5-hydroxytryptamine receptor 2B (P41595 whole entry): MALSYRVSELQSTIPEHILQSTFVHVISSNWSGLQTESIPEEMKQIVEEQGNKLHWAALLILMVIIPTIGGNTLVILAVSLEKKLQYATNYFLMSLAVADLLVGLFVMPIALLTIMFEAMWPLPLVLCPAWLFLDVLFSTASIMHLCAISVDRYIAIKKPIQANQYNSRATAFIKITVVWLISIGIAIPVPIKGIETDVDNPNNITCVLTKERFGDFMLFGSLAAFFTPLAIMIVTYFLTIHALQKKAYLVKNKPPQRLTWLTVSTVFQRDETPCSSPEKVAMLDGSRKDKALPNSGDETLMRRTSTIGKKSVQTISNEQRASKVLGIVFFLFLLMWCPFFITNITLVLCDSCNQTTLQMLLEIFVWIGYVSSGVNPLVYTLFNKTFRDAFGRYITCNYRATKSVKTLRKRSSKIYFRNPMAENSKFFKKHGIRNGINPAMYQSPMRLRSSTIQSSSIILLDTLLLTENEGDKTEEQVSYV
Chain of D(1A) dopamine receptor (P21728 whole entry): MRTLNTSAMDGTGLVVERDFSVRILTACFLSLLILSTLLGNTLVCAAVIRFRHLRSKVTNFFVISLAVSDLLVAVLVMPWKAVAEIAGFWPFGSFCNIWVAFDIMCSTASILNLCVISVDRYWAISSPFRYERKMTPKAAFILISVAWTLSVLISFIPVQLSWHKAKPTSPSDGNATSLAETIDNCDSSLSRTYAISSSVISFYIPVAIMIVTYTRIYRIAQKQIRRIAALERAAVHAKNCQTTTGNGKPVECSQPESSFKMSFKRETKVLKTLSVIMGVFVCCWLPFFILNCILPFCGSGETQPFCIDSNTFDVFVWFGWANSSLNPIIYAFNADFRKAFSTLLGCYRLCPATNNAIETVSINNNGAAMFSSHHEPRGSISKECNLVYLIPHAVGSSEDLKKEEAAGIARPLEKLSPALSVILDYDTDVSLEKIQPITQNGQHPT

In assay [1], `Cc1onc(-c2ccccc2)c1-c1ccc(S(N)(=O)=O)cc1` [VALDECOXIB] displayed an AC50 of over 10 µM.
With `COc1cc2nccc(Oc3ccc(NC(=O)C4(C(=O)Nc5ccc(F)cc5)CC4)cc3)c2cc1OC` [CABOZANTINIB], the AC50 in [2] and in assay [3] was over 30 µM throughout.
`N[C@@H](CC(=O)N1CCn2c(nnc2C(F)(F)F)C1)Cc1cc(F)c(F)cc1F` [SITAGLIPTIN] displayed an AC50 in assay [1] of over 10 µM.
Turning to `CCN(CC)CCNC(=O)c1c(C)[nH]c(/C=C2\C(=O)Nc3ccc(F)cc32)c1C` [SUNITINIB], the AC50 is over 3 µM in assay [4]; over 30 µM in assay [5]; over 10 µM in assay [6]; over 3 µM in [7]; over 30 µM in assay [8]; over 30 µM in [9]. For the same compound, the AC50 in assay [10] is over 10 µM.
Consider `CC(C(=O)O)c1ccc2c(c1)[nH]c1ccc(Cl)cc12` (stereo not given) [CARPROFEN], for which the AC50 in [4], in assay [5], in assay [6], in [7], in assay [8] and in assay [9] was over 30 µM each time. In assay [10], this compound came in with a concentration at half-maximal activity (AC50) of over 30 µM.
Turning to `C=CC[C@@H]1/C=C(\C)C[C@H](C)C[C@H](OC)[C@H]2O[C@@](O)(C(=O)C(=O)N3CCCC[C@H]3C(=O)O[C@H](/C(C)=C/[C@@H]3CC[C@@H](O)[C@H](OC)C3)[C@H](C)[C@@H](O)CC1=O)[C@H](C)C[C@@H]2OC` [TACROLIMUS ANHYDROUS], the AC50 in assay [2] is over 30 µM.
For `C=C[C@H]1C[N@@]2CC[C@H]1C[C@@H]2[C@@H](O)c1ccnc2ccc(OC)cc12` [QUINIDINE], the activity in assay [11] was half-maximal at 0.976 µM (AC50).

In general, AC50 refers to the midpoint of the concentration-response curve, whichever way the signal moves. Read a high AC50 as weaker potency.
